Reference: US7452869B2, “NIP3 family of proteins” (University of Manitoba, priority 2000, dated 2008)
“And” between values parts separate entries of the source, which are not always exact repeats. Identical values can stand only once. Residues, ends and D or L forms follow the SMILES beside them. *: point of attachment. Cbz = O=C(OCc1ccccc1)*; CH2F = FC*

Assays:
293T cells [1] = assay: b-galactosidase cell death assay in transiently transfected 293T cells; format: cell-based
Experimental: (§1) Various doses of the peptide caspase inhibitor Ac-zVAD-fmk (Enzyme System Products, Dublin, Calif.) were applied to 1×10^5 293T cells cotransfected, using LipofectAmine reagent (Gibco-BRL), with 0.01 mg of the reporter plasmid pcDNA3bgal plus the indicated expression plasmids to a final amount of 0.75 mg of DNA (see FIG. 2), as adjusted with empty vector. Cells were fixed, stained, and evaluated 27 hours posttransfection as described previously (Miura, M. et al., 1993). Similar strategies were used to evaluate the expression of pcDNA1-p35 as a caspase inhibitor (1.95 mg of DNA total) and to determine the killing efficiency of BNIP3 expressed in MEF cells (1.2 mg of DNA with 0.3 mg of b-galactosidase).

ventricular myocytes = assay: cell viability of ventricular myocytes, calcein acetoxymethyl ester / ethidium homodimer-1; format: cell-based; conditions: for BNIP3-induced cell death of ventricular myocytes: z-VAD-fmk 25 to 100 μmol/L, dose dependent
Experimental: Ventricular myocytes were isolated from 1- to 2-day-old Sprague-Dawley rats (University of Manitoba, Winnipeg, Canada) and submitted to primary culture as reported (Kirshenbaum and Schneider, 1995). Myocytes were subjected to hypoxia for 24 hours in an air-tight chamber continually gassed with 95% N2-5% CO2, as previously reported (Moissac et al., 2000; Long et al., 1997; Tanaka et al., 1994). Adult rat hearts (n=3) were excised from adult rats (250 to 300 g) and subjected to global hypoxia for 1 hour on a modified Langendorff perfusion system with buffer continually gassed with 95% N2-5% CO2, as previously reported (Kirshenbaum, 1993). Heart failure was induced in rats by surgical ligation of the left anterior descending coronary artery, as previously reported (Dixon et al., 1992). Non-failing sham control hearts and those with heart failure were excised from animals 8 weeks after myocardial infarction. Hearts (n=3) were dissected to remove the infarcted scar tissue, and the left ventricular free wall was homogenized and analyzed by Western blot for BNIP3 expression. Animals were handled according to guidelines established by the University of Manitoba and Canadian Council on Animal Care.
The cDNAs for BNIP3 full-length (BNIP3) and carboxyl terminal transmembrane domain deletion mutant (BNIP3ΔTM) have been described previously (Vande et al., 2000). Recombinant adenoviruses encoding the full-length BNIP3 or transmembrane deletion mutant are designated AdBNIP3 or AdBNIP3ΔTM, respectively, and generated as reported previously (Kirshenbaum et al., 1993).
Cell viability was determined using the vital dyes 2 μmol/L calcein acetoxymethyl ester (green) to determine the number of living cells and 2 μmol/L ethidium homodimer-1 (red) (Molecular Probes) to identify the number of dead cells (Kirshenbaum and Schneider, 1995). The number of green cells versus red cells was used to determine changes in cell viability (Moissac et al., 2000). Cells were analyzed from at least n=3 independent myocyte isolations counting ≧200 cells for each condition tested. Data are expressed as mean±SE percent reduction from control.

[2] = system: primary hippocampal neurons; assay: excitotoxic cell death of primary hippocampal neurons, trypan blue exclusion; format: cell-based, rat; conditions: z-VAD-FMK 50 μM alone, trypan blue 6 hours after glutamate or NMDA
Experimental: Primary hippocampal neurons were prepared from 18-day-old embryonic Sprague-Dawley rats as described previously by Haughey, N. J. et al. (2001). Briefly, hippocampal tissue was dissociated by gentle tituration in a calcium-free Hank's balanced salt solution and was centrifuged at 1000×g. Cells were resuspended in Dulbecco's modified Eagle's medium (DMEM)/F12 nutrient mixture containing 10% heat-inactivated fetal bovine serum and 1% antibiotic solution (104 IU of penicillin G/ml, 10 mg streptomycin/ml and 25 μg amphotericin B/ml) in 0.9% NaCl (Sigma, St Louis, Mo., USA). Hippocampal neurons were plated at a density of 2×10^5 cells/ml on 12-mm diameter poly d-lysine-coated glass coverslips. Three hours after plating, the media was replaced with serum-free Neurobasal media containing 1% B-27 supplement (Gibco, Rockville, Md., USA).
To determine the extent to which NMDA-type glutamate receptors were involved in BNIP3 expression and excitotoxic cell death, the inventors used the agonist NMDA (100 μM) in the absence or presence of the NMDA receptor antagonist MK-801 (10 μM). To determine the extent to which caspase activation contributes to BNIP3-mediated cell death, hippocampal cells were incubated in the absence or presence of the broad spectrum cell permeable caspase inhibitors z-VAD-FMK (50 μM) and BOC-D-FMK (50 μM); these inhibitors were applied 30 minutes prior to application of glutamate or NMDA. […]
(§2) In vitro cell death was estimated using trypan blue exclusion. Cells were incubated in 0.4% trypan blue solution for 30 minutes and then counted on a bright-field microscope. Nonviable cells were distinguished by their dark blue staining. To examine nuclear morphology, nuclear DNA was stained with Hoescht 33342. DNA fragmentation was detected by TUNEL using an in situ cell death detection kit with fluorescein. Statistical analyses were by ANOVA with Tukey's post-test.

293T cells [3] = assay: DNA fragmentation (TUNEL) in transfected 293T cells; format: cell-based; parameters: dose or concentration left out as unconfirmed; conditions: inhibitor, 24 hours posttransfection
Experimental: DNA fragmentation was detected using the in situ cell death detection kit with fluorescein (Boehringer Mannheim) as per the manufacturer's recommendations in the presence or absence of […] Ac-zVAD-fmk or Ac-FA-fmk. Images were captured as described earlier. No fewer than 200 nuclei were scored manually for each sample. Annexin V staining was performed exactly as described by the manufacturer (Boehringer Mannheim), and samples were analyzed via flow cytometry.

MEFs = assay: b-galactosidase cell death assay in wild-type, Apaf-1, caspase 9 or caspase 3 deficient MEFs; format: cell-based, mouse
Experimental: as §1
Results are expressed as the mean […] SE from three independent experiments. […] N, N-Dimethyl formamide (DMF) was used to dilute the adriamycin.

caspase 3-like proteases = assay: caspase activation, colorigenic cleavage of Ac-DEVD-pNA by lysates of transfected 293T cells; format: biochemical; conditions: 293T lysates harvested 1 to 36 hours posttransfection, versus untransfected controls
Experimental: Lysates were collected from 293T cells, transiently transfected via the CaP04 method (Ray, R., et al., 1999), at the indicated times. Aliquots of these lysates were run under Laemmli sodium dodecyl sulfate-polyacrylamide gel electrophoresis (SDS-PAGE) conditions and immunoblotted with mouse monoclonal anti-PARP. Results were visualized with an enhanced chemiluminescence system (Amersham Pharmacia Biotech, Amersham, U. K.). Transfected 293T cells were also assayed for caspase cleavage via colorigenic cleavage of the peptide Ac-DEVD-pNA (Biomol, Plymouth Meeting, Pa.), according to the conditions outlined by Quignon et al. (Scaffidi, C., et al., 1998), using 100 mM peptide. Where appropriate, samples were preincubated with 500 nM Ac-DEVD-fmk for 30 minutes at room temperature. Data were acquired on a Multiskan MCC/340 (Titertek) plate reader at 405 nm.

MCF-7 cells = assay: cytochrome c release by indirect immunofluorescence, MCF-7; format: cell-based
Experimental: (§3) Mitochondria were isolated from CaP04-transfected 293T cells using 70 strokes (tight pestle) in a 1-ml Dounce homogenizer (Wheaton) in […] of CFS buffer as previously described (Thornberry, N. A., et al., 1998). Mitochondria were resuspended in H buffer (Thornberry, N. A., et al., 1998). Aliquots of […] of protein were analyzed on Laemmli SDS-15% PAGE gels and immunoblotted with anticytochrome c monoclonal antibody. Equal loading was ensured by probing the same blot with monoclonal antiactin. Results were visualized with enhanced chemiluminescence. Cytochrome c release was also determined via indirect immunofluorescence of transfected MCF-7 and 293T cells. Briefly, cells grown on coverslips were costained with Cy3-conjugated mouse anti-cytochrome c monoclonal antibody and an appropriate tag (HA for BNIP3 and FLAG for tBID), which was visualized with FITC-conjugated goat anti-rabbit IgG. Cells were also stained with Hoechst dye to determine apoptotic nuclear morphology. No fewer than 200 cells were scored for each sample. Fluorescence was visualized and captured using a Zeiss axiophot microscope equipped with a cooled charge-coupled device camera.

[4] = system: primary hippocampal neurons; assay: primary hippocampal neurons transfected with BNIP3 plasmids, DNA condensation and survival; format: cell-based, rat
Experimental: Transfection of cells was performed on day four in culture with LipofectAMINE 2000 […] according to manufacturer's protocol. Cells were transfected with a pcDNA3-BNIP3 plasmid encoding the full length of BNIP3 and a pcDNA3-BNIP3-163 plasmid that encodes a truncated form (the first 163 amino acids) of BNIP3 that lacks the functional transmembrane domain. Cells were used after 9 days in culture for excitotoxicity experiments. Neuronal cell death was assessed using trypan blue exclusion, morphological changes, and Hoescht 33342 staining. Morphological characteristics were examined on a Nikon Eclipse TE200 microscope and fluorescence was examined on a Zeiss Axioskop 2.
as §2

PT pore = assay: mitochondrial Dcm (DiOC6), ROS production (HE) and PI staining by flow cytometry in BNIP3-transfected 293T cells; format: cell-based; conditions: 293T cells, 8 hours after transfection
Experimental: Changes in mitochondrial function were determined by incubating 10 6 293T cells, transiently transfected via the CaP04 method, with either 1 mM JC-1, 40 nM DiOC6, or 2 mM dihydroethidium (HE) (all from Molecular Probes, Inc.) for 30 minutes at 37° C. in Hanks' balanced salt solution (Gibco-BRL). Cells were scored using a FACScalibur flow cytometer (Becton-Dickinson, San Jose, Calif.), and data were analyzed on Celiquest software, version 3.1 (Becton-Dickinson). Controls were performed in the presence or absence of […] mClCCP (Sigma) or an excess of 30% H2 02. For inhibition experiments, cyclosporin A (Sigma) or bongkrekic acid (a gift from J. A. Duine, Delft University, Delft, The Netherlands) was added 2 hours prior to transfection. All cells were harvested 8 hours after transfection and stained with 40 nM DiOC6, 2 mM HE, or 1 mg of propidium iodide (PI) (Sigma) per ml. In all cases, samples were gated to exclude cellular debris.

293T cells [5] = assay: cytochrome c release by indirect immunofluorescence, 293T; format: cell-based
Experimental: as §3

COC(=O)C[C@H](NC(=O)[C@H](C)NC(=O)[C@@H](NC(=O)OCc1ccccc1)C(C)C)C(=O)CF [Ac-zVAD-fmk] (Cbz-Val-Ala-Asp(OMe)-CH2F)
BNIP3-induced cell death in presence of caspase inhibitor (293T cells [1]; 293T cells transfected with BNIP3, evaluated 27 hours posttransfection, p35 plasmid up to 1.5 mg): unaffected
suppression of cell death of tBID or caspase 9/Apaf-1 transfectants (293T cells [1]; 293T cells, 27 hours posttransfection, same concentration of inhibitor): greater than 50%
BNIP3-induced cell death of ventricular myocytes (ventricular myocytes; listed as z-VAD-fmk): prevented
BNIP3-induced cell death of ventricular myocytes (ventricular myocytes; listed as z-VADfmk): suppressed
cell death caused by glutamate or NMDA [2]: did not prevent
DNA fragmentation (TUNEL) in BNIP3 transfectants (293T cells [3]): partially inhibited
DNA fragmentation (TUNEL) in tBID-expressing cells (293T cells [3]): nearly completely inhibited

COc1cccc2c1C(=O)c1c(O)c3c(c(O)c1C2=O)C[C@@](O)(C(=O)CO)C[C@@H]3O[C@H]1C[C@H](N)[C@H](O)[C@H](C)O1 [adriamycin]
adriamycin-induced cell death in mutant MEFs (MEFs; Apaf-1, caspase 9 or caspase 3 deficient MEFs, 3 mg of adriamycin per ml for 24 hours): profound resistance

BNIP3: full-length BNIP3, expressed from plasmid or adenovirus; mutation None
increase in myocyte death (ventricular myocytes; adenovirus encoding full-length BNIP3 versus control virus, P<0.05): 8.3 fold
increase in Ac-DEVD-pNA substrate cleavage after transfection (caspase 3-like proteases): only marginal increases
cytochrome c release (in words) (MCF-7 cells): no significant cytochrome c release
neurons surviving glutamate toxicity ([4]; glutamate 100 μM at day 9 in culture, 5 days after transfection): 32%
BNIP3-positive neurons showing DNA condensation / DNA damage ([4]; transiently transfected hippocampal neurons): 81% and 85%
cell death induced by transient transfection (MEFs; wild-type and all mutant MEF lines): 50%
DiOC6-low and HE-high cells (PT pore): 55%
cytochrome c release (in words) (293T cells [5]): only very low levels
